# Reference: paper PMC9743090, “Induction of Ferroptosis in Glioblastoma and Ovarian Cancers by a New Pyrrole Tubulin Assembly Inhibitor” (Journal of Medicinal Chemistry, 2022)
# Values joined by “and” are separate entries in the source; they are usually repeats but may differ in a detail not shown here. Equal values may be shown once.
# What was measured:
# [1] = test system: MCF-7 human breast carcinoma cells; experiment: Inhibition of the growth of MCF-7 human breast carcinoma cells; type: cell-based
# Method: The methodology for the evaluation of the growth of human MCF-7 breast carcinoma cells was previously described, except that cells were grown for 96 h for IC50 determinations.[66] U-87 MG and OVCAR-3 proliferation assays were performed plating 10^4 cells/cm^2 in a Multiwell 24. The day after, cells were treated with compound 15, and DMSO was used as a control. Cells were counted 48 h later with a Bürker counting chamber, after dilution in TrypanBlue (#T6146 Sigma-Aldrich).
# [2] = test system: SKOV-3; experiment: In vivo SKOV-3 xenograft, tumor size and tumor tissue analysis; design: species or system BALB/C^nu/nu mice
# Method: Briefly, all 10 week-old female BALB/C^nu/nu mice (24 mice) were purchased from the Shanghai University of Traditional Chinese Medicine with Institutional Animal Care and Use Committee approval in accordance with institutional guidelines. All mice were randomly divided into four groups. In #1 group (4 mice), 1 × 10^8 cells/mL from U-87 MG at the logarithmic growth phase were harvested and inoculated subcutaneously, followed by intraperitoneal injection of 100 μL of 15 (25 mg/kg) every 2 days. In #2 group (4 mice), 1 × 10^8 cells/mL from U-87 MG at the logarithmic growth phase were harvested and inoculated subcutaneously, followed by intraperitoneal injection of 100 μL of saline every 2 days. In #3 group (4 mice), 1 × 10^8 cells/mL from SKOV-3 at the logarithmic growth phase were harvested and inoculated subcutaneously, followed by intraperitoneal injection of 100 μL 15 (25 mg/kg) every 2 days. In #4 group (4 mice), 1 × 10^8 cells/mL from SKOV-3 at the logarithmic growth phase were harvested and inoculated subcutaneously, followed by intraperitoneal injection of 100 μL of saline every 2 days. After continuous feeding for 40 days, the mice were sacrificed, and the tumors were removed. The tumors were weighed, and the volumes were calculated using the following formula: Tumor volume (cm^3) = (ab^2)/2 (a: the longest axis (cm), b: the shortest axis (cm)).
# Briefly, fresh tissues were immersed in 4% paraformaldehyde (Sigma-Aldrich) for fixation at room temperature for 30 min. The tissues were then dehydrated in an ethanol gradient, embedded in paraffin, sectioned (thickness: 6 μm), and immersed in xylene for dewaxing. Tissue sections were blocked with immunohistochemical blocking solution (Beyotime Biotechnology Co., Ltd., Zhejiang, China) at 37 °C for 30 min. The blocking solution was then discarded, and the sections were washed three times at room temperature for 5 min, each with immunohistochemical washing solution (Beyotime Biotechnology). Then, primary antibodies (rabbit anti-GPX4 antibody [EPNCIR144] (ab125066), rabbit anti-ferritin heavy chain antibody [EPR18878] (ab183781), and rabbit anti-Ki67 antibody (ab15580), Abcam, MA, USA) were added and incubated at 37 °C for 45 min. After incubation, the antibody solution was discarded, and the sections were washed three times at room temperature for 5 min each with immunohistochemical washing solution (Beyotime Biotechnology). Then, the secondary antibody (goat anti-rabbit IgG H&L (Alexa Fluor 488), Abcam, MA, USA) was added, and the tissues were incubated at 37 °C for 45 min. After incubation, the antibody solution was discarded, and the sections were washed three times at room temperature for 5 min, each with immunohistochemical washing solution (Beyotime Biotechnology). Finally, immunofluorescence blocking solution (Sigma-Aldrich) was added, and the sections were mounted.
# According to the instructions of the RNAprep pure Tissue Kit (TIANGEN Biotech (Beijing) China) Co., Ltd., Beijing, China), to about 20 mg of […] tissue specimen was added 800 μL of lysis solution, and the mixture was ground, homogenized, and centrifuged. To the supernatant, 200 μL of chloroform was added, and the mixture was mixed by inverting and centrifuged at 4 °C at 13,400 × g for 15 min. To the supernatant, two volumes of absolute ethanol were added, mixed by inversion, and centrifuged at 4 °C at 13,400 × g for 30 min. Ethanol precipitation and centrifugation of the supernatant were repeated. The RNA pellet was suspended with 500 μL of 75% ethanol and centrifuged at 13,400 × g at 4 °C for 5 min. The supernatant was discarded, the excess liquid was removed, and the pellet was dissolved in 300 μL of DECP water. One microliter of the RNA solution was used to measure the ratio of A260–A280 (generally 1.8–2.0) to determine the purity and approximate concentration of the RNA. […]
# [3] = Metabolic stability in human liver microsomes; type: in vitro ADME
# Method: Mouse (Sigma Aldrich, CD-1 male, pooled) and human microsomes (Sigma Aldrich, human, pooled) at 0.5 mg/mL were preincubated with the test compound 15 dissolved in DMSO at 1 μM in phosphate buffer 50 mM, pH 7.4, and 3 mM MgCl2 for 10 min at 37 °C. The reaction was then started by adding the cofactor mixture solution (NADP, glucose-6-phosphate, glucose-6-phosphate dehydrogenase in 2% NaHCO3). Samples were taken at 0, 10, 30, 45, and 60 min and added to acetonitrile to stop the reaction. Samples were then centrifuged, and the supernatant was analyzed by LC–MS/MS to quantify the amount of the compound. A control sample without the cofactor was always added to check the chemical stability of the test compound. […] A fixed concentration of verapamil was added in every sample as an internal standard for LC–MS/MS analyses. The percentage of the area of the test compound remaining at the various incubation times was calculated with respect to the area of the compound at time 0 min.
# The rate constant, k (min^–1), derived for the exponential decay equation (peak area/IS vs time), was used to calculate the rate of Cli.
# Samples were analyzed under the following conditions: UPLC Waters coupled with an API 3200 triple-quadrupole (ABSciex); eluents, (phase A) 95% water, 5% acetonitrile + 0.1% HCOOH, (phase B) 5% water, 95% acetonitrile + 0.1% HCOOH; flow rate, 0.3 mL/min; column, Gemini-Nx 5 μm C18 110A (50 × 2.00 mm) at 35 °C; injection volume, 10 μL. Source conditions ESI positive: T 400 °C, Gas 1 30, Gas 2 35, CUR 30, IS 5500, CAD 5.
smiles,measurement,setting,value
"COc1cc(C(=O)c2cn(-c3ncccn3)cc2-c2ccco2)cc(OC)c1OC [Compound 15, (4-(Furan-2-yl)-1-(pyrimidyl-2-yl)-1H-pyrrol-3-yl)(3,4,5-trimethoxyphenyl)methanone]",Inhibition of MCF-7 cell growth (in words),[1],strong inhibition
same,IC50,"[1]; Homo sapiens, MCF7, inhibition of cell growth, cells grown for 96 h, read-out: MCF-7 IC50 ± SD",4 ± 1 nM
same,ATP level in tumor tissue vs control,[2]; 25 mg/kg i.p. every 2 days,significantly lower
same,Fe2+ concentration in tumor tissue vs control,[2]; 25 mg/kg i.p. every 2 days,significantly higher
same,LPO level in tumor tissue vs control,[2]; 25 mg/kg i.p. every 2 days,appreciably higher
same,MDA level in tumor tissue vs control,[2]; 25 mg/kg i.p. every 2 days,appreciably higher
same,T-GSH level in tumor tissue vs control,[2]; 25 mg/kg i.p. every 2 days,significantly lower
same,lactic acid level in tumor tissue vs control,[2]; 25 mg/kg i.p. every 2 days,appreciably higher
same,tumor size (volume and weight) vs saline control,"[2]; 25 mg/kg i.p. every 2 days, day 40",significantly smaller
same,CD31 expression in tumor tissue vs control,[2]; immunofluorescence staining,significantly lower expression
same,FTH1 expression in tumor tissue vs control,[2]; immunofluorescence staining,significantly lower expression
same,GPX4 expression in tumor tissue vs control,[2]; immunofluorescence staining,significantly lower expression
same,Ki67 expression in tumor tissue vs control,[2]; immunofluorescence staining,significantly lower expression
same,Cli ± SD,"[3]; HLM 0.5 mg/mL, 1 μM, n = 2",36 μL/min/mg protein and 35.9 ± 0.2 μL/min/mg protein
same,"half-life at 1 h, 1 µM","[3]; human, liver microsomes, pH 7.4, HLM 0.5 mg/mL, 1 μM, n = 2, read-out: t1/2 ± SD",38.7 ± 0.2 min
same,microsomal CLint at 1 μM,"[3]; pH 7.4, human liver microsomes, read-out: intrinsic clearance classification",1.8 to 48 µL/min/mg
